{
  "source": "patent US20040229872A1",
  "about": "“Substituted cyclohexane-1,4-diamine compounds with anti-diarrhea and peripheral analgesic activity” (Gruenenthal GmbH, priority 2001, published 2004)",
  "key": {"mice [1]": {"test_system": "mice", "details": "mouse, in vivo, po"}, "mice [2]": {"test_system": "mice", "details": "mouse, in vivo"}, "mice [3]": {"test_system": "mice", "experiment": "animal or person", "details": "Mus musculus, iv, read-out: Analgesia, tail flick test in mice, i.v., ED50"}, "mice [4]": {"test_system": "mice", "experiment": "PGE2-induced diarrhea in mice", "type": "in vivo"}},
  "data": [
    {"compound": "CN(C)C(=O)C(CCN1CCC(O)(c2ccc(Cl)cc2)CC1)(c1ccccc1)c1ccccc1", "note": "[Loperamide, loperamide]", "values": [
      {"measurement": "Carbon passage, mice, ED50 p.o.", "setting": "mice [1]", "result": "ED50 p.o. = ˜15 μM"},
      {"measurement": "action on the central nervous system (in words)", "setting": "mice [2]", "result": "always has a measurable action"},
      {"measurement": "tail flick test in mice, i.v.: toxic side effects from", "setting": "mice [2]; iv", "result": "toxic from 0.464"},
      {"measurement": "ED50", "setting": "mice [3]", "result": "> 0.562", "unit": "mg/kg"},
      {"measurement": "ED50", "setting": "mice [4]; Mus musculus, iv, read-out: ED50 Value (mg/kg) i.v.", "result": 0.41, "unit": "mg/kg"},
      {"measurement": "PGE2-diarrhea, mice, ED50 i.v.", "setting": "mice [4]; mouse, in vivo, iv", "result": "ED50 i.v. = 0.41 μM"},
      {"measurement": "PGE2-diarrhea, mice, ED50 p.o.", "setting": "mice [4]; mouse, in vivo, po", "result": "ED50 p.o. = 9.34 μM"}
    ]}
  ]
}
